Laboratory results from ChEMBL document CHEMBL4483862, “Open-source discovery of chemical leads for next-generation chemoprotective antimalarials” (2018).

System: Plasmodium berghei
Test: Luciferase/luciferin-expressing antifolate-resistant parasites were used to infect a culture of HepG2 cells that were pre-incubated with compounds. Infected hepatocytes emit light due to the luciferase reaction. Assay results are presented as the percent inhibition of light emission compared to control. […]
Assay type: functional
Details: sporozoite; for IC90: read-out: LUCIFERASE INFECTION ASSAY - IC90
[1] = read-out: LUCIFERASE INFECTION ASSAY - IC50

| SMILES | IC90 [µM] | IC50 [1] [µM] | other results |
| --- | --- | --- | --- |
| Cc1cc(=O)nc(N/N=C/c2c(C)nn(-c3ccccc3)c2Oc2ccc(F)cc2)[nH]1 | > 10 | – | IC50 (PBLUC_HILL_SLOPE 3.64, PBLUC_R_SQUARED 0.538, read-out: LUCIFERASE INFECTION ASSAY - IC50): 6.15 µM |
| O=C(NCC1CCCO1)c1cc2c([nH]c3ccccc32)c(-c2ccc(F)cc2)n1 (stereo not given) | 8.34 | – | IC50 (HEPG2TOX_HILL_SLOPE 1.25, HEPG2TOX_R_SQUARED 0.9, PBLUC_HILL_SLOPE 2.06, PBLUC_R_SQUARED 0.74, read-out: LUCIFERASE INFECTION ASSAY - IC50): 2.86 µM |
| N#Cc1c(N)nc(Sc2ccc(Cl)cc2)c(C#N)c1-c1ccccc1Cl | > 8.31 | – | IC50 (HEPG2TOX_HILL_SLOPE 9.05, HEPG2TOX_R_SQUARED 0.0303, PBLUC_HILL_SLOPE 3.41, PBLUC_R_SQUARED 0.0674, read-out: LUCIFERASE INFECTION ASSAY - IC50): 7.69 µM |
| Nc1ncc(-c2ccc(CO)cc2)cc1-c1ccc(F)c(Cl)c1 | > 10 | – | IC50 (PBLUC_HILL_SLOPE 12.5, PBLUC_R_SQUARED 0.497, read-out: LUCIFERASE INFECTION ASSAY - IC50): 9.14 µM |
| O=C(C1CCCN(C2=NS(=O)(=O)c3ccccc32)C1)N1CCOCC1 (stereo not given) | > 10 | > 10 | – |
| OCCNCCNCc1c(OCc2ccccc2F)ccc2ccccc12 | > 8.96 | > 8.96 | – |
| CC(=O)N1CCN(c2nc(CC(C)C)c3c(c2C#N)CCCC3)CC1 | > 9.69 | – | IC50 (FFLUC_HILL_SLOPE 6.37, FFLUC_R_SQUARED 0.032, PBLUC_HILL_SLOPE 12.2, PBLUC_R_SQUARED 0.0332, read-out: LUCIFERASE INFECTION ASSAY - IC50): 8.99 µM |
| O=C(OC1CCCCC1)c1ccc(NC(=O)C2CCCCC2)cc1 | > 10 | – | IC50 (PBLUC_HILL_SLOPE 6.21, PBLUC_R_SQUARED 0.113, read-out: LUCIFERASE INFECTION ASSAY - IC50): 9.48 µM |
| Cc1cc(C(=O)Cn2cnc3ccccc3c2=O)c(C)n1-c1ccccc1 | > 10 | – | IC50 (HEPG2TOX_HILL_SLOPE 1.21, HEPG2TOX_R_SQUARED 0.806, PBLUC_HILL_SLOPE 1.3, PBLUC_R_SQUARED 0.604, read-out: LUCIFERASE INFECTION ASSAY - IC50): 2.96 µM |
| CCc1ccc(NC(=O)Cc2nc(-c3ccc4c(c3)CCCN4S(C)(=O)=O)cs2)cc1 | > 10 | – | IC50 (HEPG2TOX_HILL_SLOPE 9.08, HEPG2TOX_R_SQUARED 0.0527, PBLUC_HILL_SLOPE 1.74, PBLUC_R_SQUARED 0.25, read-out: LUCIFERASE INFECTION ASSAY - IC50): 5.76 µM |
| CCOC(=O)c1[nH]c2cc(OC)c(OC)cc2c1NC(=O)c1ccccc1OC | > 8.28 | – | IC50 (PBLUC_HILL_SLOPE 12.7, PBLUC_R_SQUARED 0.193, read-out: LUCIFERASE INFECTION ASSAY - IC50): 8.06 µM |
| CCCCNC(=O)c1c(NC(=O)c2ccc(C(F)(F)F)cc2)nc2ccccn12 | 0.365 | – | IC50 (FFLUC_HILL_SLOPE 8.16, FFLUC_R_SQUARED 0.656, HEPG2TOX_HILL_SLOPE 0.864, HEPG2TOX_R_SQUARED 0.784, PBLUC_HILL_SLOPE 12.7, PBLUC_R_SQUARED 0.564, read-out: LUCIFERASE INFECTION ASSAY - IC50): 0.306 µM |
| Cn1c(NCC2CC2)nc2cnc(-c3ccc4ccccc4c3)cc21 | 2.07 | – | IC50 (FFLUC_HILL_SLOPE 1.05, FFLUC_R_SQUARED 0.583, HEPG2TOX_HILL_SLOPE 31.1, HEPG2TOX_R_SQUARED 0.421, PBLUC_HILL_SLOPE 0.605, PBLUC_R_SQUARED 0.735, read-out: LUCIFERASE INFECTION ASSAY - IC50): 0.0548 µM |
| O=C(Cc1cn(-c2ccccc2)nc1-c1ccc(Cl)cc1)NCc1ccc(Cn2ccnc2)cc1 | > 10 | – | IC50 (PBLUC_HILL_SLOPE 23, PBLUC_R_SQUARED 0.395, read-out: LUCIFERASE INFECTION ASSAY - IC50): 9.71 µM |
| Fc1ccc(N/N=C/Cc2nnnn2-c2ccccc2)cc1 | > 11.1 | – | IC50 (HEPG2TOX_HILL_SLOPE 8.77, HEPG2TOX_R_SQUARED 0.625, PBLUC_HILL_SLOPE 4.51, PBLUC_R_SQUARED 0.347, read-out: LUCIFERASE INFECTION ASSAY - IC50): 7.9 µM |
| c1ccc(OCc2nc3ccccc3n2-c2cc(-c3ccccc3)n[nH]2)cc1 | > 10 | – | IC50 (PBLUC_HILL_SLOPE 0.678, 16.2, PBLUC_R_SQUARED 0.350, 0.0461, read-out: LUCIFERASE INFECTION ASSAY - IC50): 9.43 µM |
| NC(Cc1ccc(Cl)cc1)c1csc(NC(=O)Nc2ccccc2Cc2ccccc2)n1 (stereo not given) | > 7.13 | – | IC50 (PBLUC_HILL_SLOPE 11.7, PBLUC_R_SQUARED 0.713, read-out: LUCIFERASE INFECTION ASSAY - IC50): 6.46 µM |
| OCc1ccc(-c2cnc3cnc(-c4cccnc4)cn23)cc1 | 7.72 | – | IC50 (PBLUC_HILL_SLOPE 5.76, PBLUC_R_SQUARED 0.27, read-out: LUCIFERASE INFECTION ASSAY - IC50): 5.27 µM |
| OCc1ccc(-c2cnc3ccc(-c4cccc(OC(F)(F)F)c4)nn23)cc1 | 3.46 | – | IC50 (FFLUC_HILL_SLOPE 15.5, FFLUC_R_SQUARED 0.126, HEPG2TOX_HILL_SLOPE 8.34, HEPG2TOX_R_SQUARED 0.955, PBLUC_HILL_SLOPE 1.79, PBLUC_R_SQUARED 0.869, read-out: LUCIFERASE INFECTION ASSAY - IC50): 1.01 µM |
| Cc1cccc2c(=O)nc(CSc3ncnc4sc(-c5ccccc5)cc34)[nH]c12 | > 10 | – | IC50 (HEPG2TOX_HILL_SLOPE 2.96, HEPG2TOX_R_SQUARED 0.569, read-out: LUCIFERASE INFECTION ASSAY - IC50): > 10 µM |
| CCCN(Cc1nc(=O)c2ccc(Cl)cc2[nH]1)C(=O)C1CCN(c2nc3ccccc3o2)CC1 | > 10 | > 10 | – |
| Cc1nc2ccccc2c(=O)n1-c1ccc(C(=O)NCCCc2ccccc2)cc1 | > 10 | > 10 | – |
| CCOC(=O)c1c(-c2ccc(Br)cc2)cn2c(=O)/c(=C3\C=CC=CN3C)sc12 | > 10 | – | IC50 (FFLUC_HILL_SLOPE 2.7, FFLUC_R_SQUARED 0.575, PBLUC_HILL_SLOPE 2.12, PBLUC_R_SQUARED 0.479, read-out: LUCIFERASE INFECTION ASSAY - IC50): 7.05 µM |

| SMILES | IC90 [µM] | IC50 [1] [µM] | other results |
| --- | --- | --- | --- |
| COC(=O)CCSc1nnc(Nc2ccc(OC(F)(F)F)cc2)s1 | > 10 | > 10 | – |
| CSc1ncc2c(n1)CC(C)(C)C/C2=N\OC(=O)c1cccc(C(F)(F)F)c1 | > 8.06 | > 8.06 | – |
| CCN1CCc2nc(NC(=O)C3(c4ccc(Br)cc4)CC3)sc2C1 | 3.64 | – | IC50 (HEPG2TOX_HILL_SLOPE 12.5, HEPG2TOX_R_SQUARED 0.865, PBLUC_HILL_SLOPE 12.4, PBLUC_R_SQUARED 0.642, read-out: LUCIFERASE INFECTION ASSAY - IC50): 3.05 µM |
| C=S(=O)(NS(=O)(=O)c1ccc2c(c1)CCN2C(C)=O)c1ccc(C)cc1 (stereo not given) | > 8.41 | > 8.41 | – |
| CCN(CC)CCn1c(NC(=O)c2cc(-c3cccs3)nn2-c2ccccc2)nc2ccccc21 | > 10 | – | IC50 (PBLUC_HILL_SLOPE 2.69, PBLUC_R_SQUARED 0.0924, read-out: LUCIFERASE INFECTION ASSAY - IC50): 6.76 µM |
| Cn1c(Sc2cnc(SCc3ccc(Cl)cc3)nc2-c2ccccc2)nnc1C(F)(F)F | > 6.68 | > 6.68 | – |
| O=C1NCCN1CCNc1nn2c(-c3cccc(OC(F)(F)F)c3)cnc2s1 | > 8 | > 8 | – |
| COc1cc(/C=C/C(=O)OC(C(=O)c2c[nH]c3ccccc23)c2ccccc2)cc(OC)c1OC (stereo not given) | > 10 | > 10 | – |
| CS(=O)(=O)Nc1ccc(-c2csc(NC(=O)c3ccc(CN4CCCCC4)cc3)n2)cc1 | > 10 | – | IC50 (PBLUC_HILL_SLOPE 15.3, PBLUC_R_SQUARED 0.202, read-out: LUCIFERASE INFECTION ASSAY - IC50): 9.15 µM |
| O=C(Cc1csc(-c2ncccn2)n1)Oc1ccc(N2CCCC2=O)cc1 | > 10 | > 10 | – |
| O=C(c1cc(S(=O)(=O)Nc2cccc(-n3cccn3)c2)c[nH]1)N1CCCC1 | > 10 | 9.51 | – |
| Cc1ccc(NC(=O)CSc2ccc(Nc3ccc(C)cc3)nn2)cc1 | > 9.05 | > 9.05 | – |
| COc1cc(OC)c(OC)cc1CNC(=O)c1ccc2[nH]c3c(c2c1)CCCC3 | > 10 | – | IC50 (PBLUC_HILL_SLOPE 2.72, PBLUC_R_SQUARED 0.276, read-out: LUCIFERASE INFECTION ASSAY - IC50): 9.2 µM |
| CCOC(=O)C1(C)CCCCN1C(=O)c1ccc(C(=O)OC)cc1 (stereo not given) | > 9.9 | > 9.9 | – |
| Cc1ccc2nc(NC(=O)c3ccc(Cl)cc3)c(C(=O)NCC(C)C)n2c1 | 2.91 | 2.76 | – |
| CN1/C(=C\C(=O)COC(=O)c2cc3ccccc3cc2O)C(C)(C)c2ccccc21 | > 10 | > 10 | – |
| COc1ccc(-c2nn(-c3ccccc3)cc2/C=N/Nc2ncc(C(F)(F)F)cc2Cl)cc1OC | 2.33 | – | IC50 (HEPG2TOX_HILL_SLOPE 13.4, HEPG2TOX_R_SQUARED 0.529, PBLUC_HILL_SLOPE 3.64, PBLUC_R_SQUARED 0.734, read-out: LUCIFERASE INFECTION ASSAY - IC50): 1.27 µM |
| Cc1nc(SCc2nc(-c3cccs3)no2)c(C#N)c(C)c1C | 0.683 | 0.0298 | – |
| NC(=O)c1cc(-c2cs/c(=N\c3ccccc3F)n2C2CCCC2)ccc1O | > 10 | – | IC50 (PBLUC_HILL_SLOPE 1.38, PBLUC_R_SQUARED 0.237, read-out: LUCIFERASE INFECTION ASSAY - IC50): 4.32 µM |
| CCC(Sc1nnc(-c2ccccc2F)[nH]1)C(=O)Nc1ccccc1 (stereo not given) | > 10 | > 10 | – |
| COc1cc(OC)cc(-c2cnc3cnc(-c4cccc(OC(C)C)c4)cn23)c1 | > 8.47 | – | IC50 (PBLUC_HILL_SLOPE 3.99, PBLUC_R_SQUARED 0.348, read-out: LUCIFERASE INFECTION ASSAY - IC50): 6.48 µM |
| COc1ccc(C2CC(c3ccccc3)=NN2C(=O)COc2c(Cl)cc(Cl)c3ccc(C)nc23)cc1 (stereo not given) | > 10 | > 10 | – |
